Source: article PMC11219860, “A chemogenetic approach for dopamine imaging with tunable sensitivity” (Nature Communications, 2024)

What was measured:
[1] = tested on: dLight1.3b; assay: In vivo photometry of optogenetically-evoked DA release in PFC; design: species or system mouse; settings: DETQ 10 mg/kg i.p.
Description: (§1) Fiber photometry combined with optogenetics was conducted using a RZ10X LUX-I/O Processor with integrated LEDs (Tucker-Davis Technologies) combined with a filter/mirror minicube set (FMC6_IE(400-410)_E1(467-497)_F1(507-554)_E2(566-586)_F2(600-680)_S) (Doric Lenses). […] Low-autofluorescence patch cords (400 µm/0.57 NA, Doric) were attached to the optic fibers (400 µm/0.66 NA, Doric) on the mouse’s head to collect fluorescence emissions. Signals were filtered through 500–540 nm GFP emission filters coupled to a photodetector on the RZ10X. […] Data were sampled at 1017.3 Hz. […] For optogenetic stimulation, a 635 nm LED was passed through the 580–680 nm minicube F2 port and reached the mouse through the same unique optic fiber; the LED was driven at 1 to 3 mW. To determine the ‘temporal window for stable imaging’ in the PFC using dLight1.3b recordings, DAT^IREScre mice expressing ChrimsonR in VTA DA axons and dLight1.3b in the PFC were injected i.p. with vehicle at 0 min, followed by DETQ (10 mg/kg) 25 min later. After each injection, PFC DA axons were optically (opto) activated across 5 trials (2 s, 20 Hz, 20-ms pulses) for the vehicle (20 min) and 19 trials for DETQ (1h05 min) every 5 min. DA release was measured with fiber photometry. In another session, the same mice were injected with Veh, then DETQ (10 mg/kg) 20 min later, then cocaine (20 mg/kg) 25 min later, and the same optogenetic protocol was applied (2 s, 20 Hz, 20-ms pulses every 5 min). For optogenetic validation of AlloLite-ctr in the NAc, DAT^IREScre mice expressing ChrimsonR in VTA DA axons were injected i.p. with vehicle (Day 1) or DETQ (10 mg/kg) (Day 8) at 0 min, followed by cocaine (20 mg/kg) 20 min later. After each injection, NAc DA axons were optically (opto) activated across 3 trials (2 s, 20 Hz, 20-ms pulses) every 5 min and DA released measured with fiber photometry. […] After each injection, NAc DA axons were optically (opto) inhibited (10 s, continuous trials) every 3 min (8 trials/condition) and DA released measured with fiber photometry. […] DA release was measured with fiber photometry.
For long-term recordings during optogenetic stimulation or chemogenetic inhibition linear fit was calculated across the entire recording or across the vehicle epoch; for event-related experiments fit was performed on fluorescent data obtained in the −60 to +60 s around opto events or −5 to −1 s around behavioral events. […] DA event-related responses were quantified by computing the value at the transient’s peak value and the AUC in the 0 to 10 s or 0 to 60 s period post-event onset. […] The maximal peak value of Veh-normalized ΔF/F0 after opto-onset was plotted over time and the plateau of maximal response was determined by averaging peak opto responses 5, 10, 15 and 20 min post-DETQ. […]

[2] = tested on: dLight1.3b; assay: Cue-reward Pavlovian conditioning with NAc dLight1.3b photometry; assay type: in vivo, mouse
Description: (§2) After habituating mice to the experimental chamber (4 consecutive days for 5–10 min) mice were food restricted to 90% ad libitum body weight. […] During learning sessions, the delay between CS and US was increased every training day from 2 to 10 seconds until mice became expert. […] After i.p. injection, mice were placed into an operant chamber. 3–4 electric footshocks (0.4 mA for 1 second) were delivered 10 to 25 min post vehicle or DETQ with variable intervals (randomly chosen from a uniform distribution between 240 and 360 seconds or between 120 and 240 seconds) without predictive cues. Mouse freezing behavior was monitored with a video camera (C310 Logitech,10 frames per second) positioned above the recording chamber and controlled by the Synapse software. […] Freezing was defined as the complete cessation of all movement for at least 1 s during a 25-min testing duration.
For long-term recordings during optogenetic stimulation or chemogenetic inhibition linear fit was calculated across the entire recording or across the vehicle epoch; for event-related experiments fit was performed on fluorescent data obtained in the −60 to +60 s around opto events or −5 to −1 s around behavioral events. […] DA event-related responses were quantified by computing the value at the transient’s peak value and the AUC in the 0 to 10 s or 0 to 60 s period post-event onset. […] The maximal peak value of Veh-normalized ΔF/F0 after opto-onset was plotted over time and the plateau of maximal response was determined by averaging peak opto responses 5, 10, 15 and 20 min post-DETQ. We then looked at trials between 5 and 65 min post-DETQ to determine which trials belonged to a ‘temporal window for stable imaging’. […] AUC of the baseline was calculated within the +5 to +40 minutes time window post ip injection. For detection of spontaneous DA peaks the calculated ΔF/F0 was smoothed with a 50 datapoints (410 milliseconds) moving window, and the built-in Matlab function findpeaks was applied, with the threshold for minimal peak prominence set to 0.5% ΔF/F0.

[3] = tested on: AlloLite-ctr; assay: In vivo photometry of AlloLite-ctr in NAc; design: species or system mouse; settings: DETQ 10 mg/kg
Description: as §1, with “After each injection, PFC DA axons were optically (opto) activated across 5 trials (2 s, 20 Hz, 20-ms pulses) for the vehicle (20 min) and 19 trials for DETQ (1h05 min) every 5 min.” left out, “In another session, the same mice were injected with Veh, then DETQ (10 mg/kg) 20 min later, then cocaine (20 mg/kg) 25 min later, and the same optogenetic protocol was applied (2 s, 20 Hz, 20-ms pulses every 5 min). For optogenetic validation of AlloLite-ctr in the NAc, DAT^IREScre mice expressing ChrimsonR in VTA DA axons were injected i.p. with vehicle (Day 1) or DETQ (10 mg/kg) (Day 8) at 0 min, followed by cocaine (20 mg/kg) 20 min later.” left out
For long-term recordings during optogenetic stimulation or chemogenetic inhibition linear fit was calculated across the entire recording or across the vehicle epoch; for event-related experiments fit was performed on fluorescent data obtained in the −60 to +60 s around opto events or −5 to −1 s around behavioral events. […] DA event-related responses were quantified by computing the value at the transient’s peak value and the AUC in the 0 to 10 s or 0 to 60 s period post-event onset. […]

[4] = tested on: dLight1.3b; assay: Unpredicted reward or footshock with PFC dLight1.3b photometry; assay type: in vivo, mouse
Description: as §2
For long-term recordings during optogenetic stimulation or chemogenetic inhibition linear fit was calculated across the entire recording or across the vehicle epoch; for event-related experiments fit was performed on fluorescent data obtained in the −60 to +60 s around opto events or −5 to −1 s around behavioral events. […] DA event-related responses were quantified by computing the value at the transient’s peak value and the AUC in the 0 to 10 s or 0 to 60 s period post-event onset. […] The maximal peak value of Veh-normalized ΔF/F0 after opto-onset was plotted over time and the plateau of maximal response was determined by averaging peak opto responses 5, 10, 15 and 20 min post-DETQ. We then looked at trials between 5 and 65 min post-DETQ to determine which trials belonged to a ‘temporal window for stable imaging’. […] Average ΔF/F0 in the 10–20 min post vehicle injection, 0–10 min post DETQ/Veh and 2–12 min post J60/Veh were computed. […] For weekly DETQ injection, AUC was calculated in the relevant drug epoch (Veh, DETQ) and normalized against the duration of that epoch (Veh: 10 min, DETQ: 50 min). […] AUC of the baseline was calculated within the +5 to +40 minutes time window post ip injection. For detection of spontaneous DA peaks the calculated ΔF/F0 was smoothed with a 50 datapoints (410 milliseconds) moving window, and the built-in Matlab function findpeaks was applied, with the threshold for minimal peak prominence set to 0.5% ΔF/F0.

[5] = NAc, DETQ 10 mg/kg vs vehicle days

With C[C@H]1c2cccc(C(C)(C)O)c2C[C@H](CO)N1C(=O)Cc1c(Cl)cccc1Cl [DETQ, 2-(2,6-dichlorophenyl)-1-((1S,3R)-3-(hydroxymethyl)-5-(2-hydroxypropan-2-yl)-1-methyl-3,4-dihydroisoquinolin-2(1H)-yl)ethan-1-one] the “duration of stable increase in DA sensitivity” value [1] was 31 min, the “opto-evoked DA signal amplitude” value [1] was “clear and significant increase” and the “opto-evoked DA signal decay time” value [1] was “clear and significant increase”. The “latency to lick and overall licking activity” value ([2]; DETQ 10 mg/kg) was “not affected”, the “enhancement factor of CS-associated DA peak amplitude” value [2, 5] was “approximately 2 fold” and the “enhancement factor of US-associated DA peak amplitude” value [2, 5] was ~1.5 fold. The “increase in baseline signal after DETQ administration” value [3] was “completely absent”, the “opto-evoked DA peaks of AlloLite-ctr upon DETQ” value [3] was “retained the same amplitude and kinetics” and the “increase in the average peak amplitude vs. Vehicle” value ([4]; PFC, unpredicted reward) was 2 fold. For the same compound, the “single trials with detected response to reward” value ([4]; PFC, unpredicted reward) was 90.91 ± 1.40%, the “amplitude of DA signals during unexpected footshocks” value ([4]; PFC, vs interleaved vehicle days) was “significantly larger” and the “response to footshocks (freezing)” value ([4]; mouse, in vivo) was “not affected”. For the same compound, the licking duration ([4]; unpredicted reward) was “remained unchanged”.
